What follows are compounds tested on HIV (assay: Assay for inhibition of HIV replication (acute HIV infection of T-lymphoid cells)). Details: Human immunodeficiency virus 1, per Vacca et al. 1994.
Assay type: cell-based
Description: Assay for Inhibition of HIV Replication
Assays for the inhibition of acute HIV infection of T-lymphoid cells were conducted in accordance with Vacca, J. P. et al., Proc. Natl. Acad. Sci. USA 1994, 91: 4096.

Compound | IC95 [µM]
CCOC(=O)c1cn2c(c1O)C(=O)N(Cc1ccccc1)CC2 [Example 1, Ethyl 2-benzyl-8-hydroxy-1-oxo-1,2,3,4-tetrahydropyrrolo[1,2-α]pyrazine-7-carboxylate] | ≤ 20
O=C(NC1CC1)c1cn2c(c1O)C(=O)N(Cc1ccc(F)cc1)CC2 [Example 7, 2-(4Fluorobenzyl)-8-hydroxy-N-cyclopropyl-1-oxo-1,2,3,4-tetrahydropyrrolo[1,2α]pyrazine-7-carboxamide] | ≤ 20
CNC(=O)c1cn2c(c1O)C(=O)N(Cc1ccc(F)cc1)CC2 [Example 5, 2-(4-Fluorobenzyl)-8-hydroxy-N-methyl-1-oxo-1,2,3,4-tetrahydropyrrolo[1,2α]pyrazine-7-carboxamide] | ≤ 20
CNC(=O)c1cn2c(c1O)C(=O)N(Cc1ccc(F)c(F)c1)CC2 [Example 17, 2-(3,4-Difluorobenzyl)-8-hydroxy-N-methyl-1-oxo-1,2,3,4-tetrahydropyrrolo[1,2-α]pyrazine-7-carboxamide] | ≤ 20
CNC(=O)c1cn2c(c1O)C(=O)N(Cc1ccc(Cl)cc1)CC2 [Example 16, 2-(4-Chlorobenzyl)-8-hydroxy-N-methyl-1-oxo-1,2,3,4-tetrahydropyrrolo[1,2-α]pyrazine-7-carboxamide] | ≤ 20
CN1CCn2cc(C(=O)NCc3ccc(F)cc3)c(O)c2C1=O [Example 10, N-(4-Fluorobenzyl)-8-hydroxy-2-methyl-1-oxo-1,2,3,4-tetrahydropyrrolo[1,2-α]pyrazine-7-carboxamide] | ≤ 20
CCNC(=O)c1cn2c(c1O)C(=O)N(Cc1ccc(F)cc1)CC2 [Example 6] | ≤ 20
CCOC(=O)c1cn2c(c1O)C(=O)N(Cc1cccc(Cl)c1)CC2 [Example 8, Ethyl 2(3-chlorobenzyl)-8-hydroxy-1-oxo-1,2,3,4-tetrahydropyrrolo[1,2-α]pyrazine-7-carboxylate] | ≤ 20
CCOC(=O)c1cn2c(c1O)C(=O)N(Cc1ccc(F)cc1)CC2 [Example 3, Ethyl 2-(4-fluorobenzyl)-8-hydroxy-1-oxo-1,2,3,4-tetrahydropyrrolo[1,2-]pyrazine-7-carboxylate] | ≤ 20

From patent publication US7399763B2, “8-hydroxy-1-oxo-tetrahydropyrrolopyrazine compounds useful as HIV integrase inhibitors” (Merck & Co., Inc., priority 2002, dated 2008)
